# Read-outs that look alike come from different tables or passages of the source.
# How the values were obtained:
# Assay type in all cases: cell-based
# [1] = test system: EL4 cells; assay: Lectin staining for fucose expression inhibition, EL4 cells; settings: 3 days, 0-512 μM compound, flow cytometry
# Method: (§1) THP-1 cells (TIB-202, ATCC) and Jurkat cells (TIB-152, ATCC) were cultured in RPMI-1640 medium containing 2 mM Glutamine and 25 mM HEPES (Gibco™, Life Technologies), supplemented with 10% v/v heat-inactivated fetal bovine serum (FBS) (Gibco™, Life Technologies) and 1× antibiotic-antimycotic solution (100 units/mL of penicillin, 100 μg/mL of streptomycin, and 0.25 μg/mL Fungizone) (Gibco™, Life Technologies) and passaged every 3-4 day by seeding a fraction of 0.5-2 min cells of the culture per 10 ml medium. EL-4 cells (TIB-39, ATCC) were cultured in DMEM medium (Gibco™, Life Technologies), supplemented with 10% v/v heat-inactivated fetal bovine serum (FBS) (Gibco™, Life Technologies), 1× antibiotic-antimycotic solution (100 units/mL of penicillin, 100 μg/mL of streptomycin, and 0.25 μg/mL Fungizone) (Gibco™, Life Technologies) and 2 mM Glutamine (Gibco™, Life Technologies) and passaged every 2-4 days by seeding a fraction of 0.5-1 min cells of the culture per 10 ml medium. For passaging a T75 flask (Corning), medium was removed and the monolayer was washed with 10 ml PBS pH 7.2 without CaCl2) and MgCl2 (Gibco™, Life Technologies) before adding 3.5 ml 0.05% trypsin/EDTA solution (Gibco™ 5 Life Technologies) in PBS. Cells were incubated at rt for 30-45 s after which the trypsin/EDTA-solution was removed. Cells were incubated for an additional 2 min at 37° C., 5.0% CO2 and resuspended in cell culture medium. Cells were then seeded at ˜40.000 cells/cm^2 in new culture flasks. All cells were cultured at 37° C., 5% CO2 in a humidified incubator.
# (§2) Protocol below was repeated until n>=3 for each compounds using cells at different passage numbers. Cells were cultured in medium containing different concentrations of unnatural sugar derivatives on either 24-wells plates (adherent cell lines; 80,000 cells per well) (Corning) or 96-wells plates (suspension cell lines; 13,000-20,000 cells per well) (Thermo Scientific). DMSO, at same dilution as the unnatural sugar derivative stock solutions, was used as a positive control for lectin staining; P-Fuc2F was used for all concentrations as negative control. Cells were incubated for three days at 37° C. and 5% CO2 in a humidified incubator. Cells were harvested and washed with 100 μl 1×CF-blocking buffer (Vector Laboratories Inc.) containing 1 mM CaCl2) and 1 mM MgCl2. The cells were then resuspended in 50 μl 0.5 μg/ml of 0.5 ng/ml biotinylated lectin in 1× carbo-free blocking buffer and incubated at 4-8° C. for 45-60 min. Cells were washed with 3×100 μl PBA (PBS containing 1% v/v FBS and 0.1% w/w sodium azide), incubated with 40 μl 1 μg/ml Streptavidin-phycoerythrin conjugate (Invitrogen, eBioscience) in PBA for 10-15 min at 4-8° C. Cells were then washed again with 3×100 μl PBA, resuspended in PBA and fluorescence was measured with a flow cytometer (Beckman & Dickinson FACS-Calibur). Each replicate for each condition with >10,000 gated events. Data was processed using FlowJo (FlowJo LLC). Percentage of lectin binding was obtained by normalizing the MFI values to the MFI values of the respective DMSO control.
# (§3) Three cell lines (THP-1, Jurkat, EL4) were cultured for 3 days with 0-512 μM compound. The cells were stained with two fucose specific lectins (AAL & AOL) and analysed by flow cytometry, presented as mean percentage lectin binding normalized to control (n=3).
# [2] = test system: THP-1 cells; assay: Lectin staining for fucose expression inhibition, THP-1 cells; settings: 3 days, 0-512 μM compound, flow cytometry
# Method: as §1, §2, §3
# [3] = test system: Jurkat cells; assay: Lectin staining for fucose expression inhibition, Jurkat cells; settings: 3 days, 0-512 μM compound, flow cytometry
# Method: as §1, §2, §3
# [4] = test system: THP-1 cells; assay: Lectin specificity: total cell surface glycosylation with additional lectins; settings: 100 μM and 10 μM, three days; for LCA and PSA lectin binding: lectins restricted to α1,6-linked core fucosylation
# Method: Protocol below was repeated until n>=3 for each compounds using cells at different passage numbers. Culture medium was prepared in 96-wells plates (Thermo Scientific). For every unnatural sugar derivative, 11 wells containing 100 μM of unnatural sugar derivatives and 11 wells containing 10 μM of the unnatural sugar derivatives were prepared. DMSO, at same dilution as the tested probes, was used as a positive control for lectin staining. THP-1 Cells were cultured in the plates (20,000 cells per well) and the cells were incubated for three days at 37° C. and 5% CO2. Cells were harvested and washed with 100 μl 1×CF-blocking buffer (Vector Laboratories Inc.) containing 1 mM CaCl2) and 1 mM MgCl2. The cells were then resuspended in 50 μl 0.5 μg/ml of either 0.5 ng/ml biotinylated AAL, AOL, SNA, MAL-II, WGA, LCA, PSA, PNA, PHA-L or GSL-1 lectin in 1× carbo-free blocking buffer or with 50 μl of non-supplemented 1× carbo-free blocking buffer and incubated at 4-8° C. for 45-60 min. Cells were washed with 3×100 μl PBA (PBS containing 1% v/v FBS and 0.1% w/w sodium azide), incubated with 40 μl 1 μg/ml Streptavidin-phycoerythrin conjugate (Invitrogen, eBioscience) in PBA for 10-15 min at 4-8° C. Cells were then washed again with 3×100 μl PBA, resuspended in PBA and fluorescence was measured with a flow cytometer (Beckman & Dickinson FACS-Calibur). Each replicate for each condition with >10,000 gated events. Data was processed using FlowJo (FlowJo LLC). Percentage of lectin binding was obtained by normalizing the MFI values to the MFI values of the respective DMSO control.
# Compounds 9 & 10 are mannose-1-phosphate derivatives, so other glycosylation pathways such as mannosylation could be imagined to be affected. Having established the ability to inhibit cellular fucosylation with AAL and AOL lectins, the effect on total cell surface glycosylation was evaluated using additional lectins (FIG. 4A and FIG. 4B). N-glycans consist of a biantennary mannose containing backbone, recognized by WGA, and can be branched recognized by L-Pha. These branches can be terminated with galactose, recognized by PNA, or α2,6- and α2,3-linked sialic acids recognized by SNA and MAL-II, respectively. […] The decrease in binding for these lectins can thus be attributed to defucosylation as confirmed by a decrease in AAL and AOL binding and no effect on WGA binding.
# [5] = test system: THP-1 cells; assay: Onset and recovery of inhibition; settings: for inhibition at 100 µM: Homo sapiens, 72 h, read-out: inhibition of fucosylation after 3 days; for effect on lectin binding (FIG. 5): AAL or AOL lectin
# Method: Cells were cultured in medium containing different concentrations of unnatural sugar derivatives on 96-wells plates (suspension cell lines; 13,000-20,000 cells per well) (Thermo Scientific). DMSO, at same dilution as the unnatural sugar derivative stock solutions, was used as a positive control for lectin staining; P-Fuc2F was used for all concentrations as negative control. Cells were incubated for eight days at 37° C. and 5% CO2 in a humidified incubator. Medium was changed after three and six days of incubation with cell culture medium without unnatural sugar derivatives. Every day cells were harvested and washed with 100 μl 1× CF-blocking buffer (Vector Laboratories Inc.) containing 1 mM CaCl2) and 1 mM MgCl2. The cells were then resuspended in 50 μl 0.5 μg/ml of either 0.5 ng/ml biotinylated AAL, AOL, SNA, MAL-II, WGA, LCA, PSA, PNA, PHA-L or GSL-1 lectin in 1× carbo-free blocking buffer or with 50 μl of non-supplemented 1× carbo-free blocking buffer and incubated at 4-8° C. for 45-60 min. Cells were washed with 3×100 μl PBA (PBS containing 1% v/v FBS and 0.1% w/w sodium azide), incubated with 40 μl 1 μg/ml Streptavidin-phycoerythrin conjugate (Invitrogen, eBioscience) in PBA for 10-15 min at 4-8° C. Cells were then washed again with 3×100 μl PBA, resuspended in PBA and fluorescence was measured with a flow cytometer (Beckman & Dickinson FACS-Calibur). Each replicate for each condition with >10,000 gated events. Data was processed using FlowJo (FlowJo LLC). Percentage of lectin binding was obtained by normalizing the MFI values to the MFI values of the respective DMSO control.
# The onset of inhibition and duration for recovery was evaluated on THP-1 cells with 100 and 10 μM compound using the AAL lectin (FIG. 5). At 100 μM concentration compounds 9 and 10 inhibit fucosylation after 1 day and to over 50% after 3 days. Fucosylation was fully recovered to normal 5 levels on day 6. […] Similar results were obtained using the AOL lectin.
# [6] = Mus musculus, 72 h, AAL lectin, n=3, read-out: EC50 for fucose expression inhibition, EL4 AAL
# [7] = Mus musculus, 72 h, AOL lectin, n=3, read-out: EC50 for fucose expression inhibition, EL4 AOL
# [8] = Homo sapiens, 72 h, AAL lectin, n=3, read-out: EC50 for fucose expression inhibition, THP-1 AAL
# [9] = Homo sapiens, 72 h, AOL lectin, n=3, read-out: EC50 for fucose expression inhibition, THP-1 AOL
# [10] = Homo sapiens, 72 h, AAL lectin, n=3, read-out: EC50 for fucose expression inhibition, Jurkat AAL
# [11] = Homo sapiens, 72 h, AOL lectin, n=3, read-out: EC50 for fucose expression inhibition, Jurkat AOL
Structure (SMILES),"EC50 [1, 6] [µM]","EC50 [1, 7] [µM]","EC50 [2, 8] [µM]","EC50 [2, 9] [µM]","EC50 [3, 10] [µM]","EC50 [3, 11] [µM]","EC50 ([1]; AAL lectin, n=3, read-out: EC50 for fucose expression inhibition, EL4 AAL) [µM]","EC50 ([1]; AOL lectin, n=3, read-out: EC50 for fucose expression inhibition, EL4 AOL) [µM]","EC50 ([2]; AAL lectin, n=3, read-out: EC50 for fucose expression inhibition, THP-1 AAL) [µM]","EC50 ([2]; AOL lectin, n=3, read-out: EC50 for fucose expression inhibition, THP-1 AOL) [µM]","EC50 ([3]; AAL lectin, n=3, read-out: EC50 for fucose expression inhibition, Jurkat AAL) [µM]","EC50 ([3]; AOL lectin, n=3, read-out: EC50 for fucose expression inhibition, Jurkat AOL) [µM]","effect on binding of WGA, L-Pha, PNA, SNA and MAL-II lectins [4]",LCA and PSA lectin binding [4],"onset of fucosylation inhibition ([5]; 100 μM, AAL lectin) [days]","inhibition at 100 µM ([5]; 100 μM, AAL lectin) [%]",effect on lectin binding (FIG. 5) ([5]; 100 μM),"inhibition of fucosylation at 10 μM ([5]; 10 μM, AAL lectin)",effect on lectin binding (FIG. 5) ([5]; 10 μM)
"CC(=O)OC1C(OC(C)=O)[C@H](OC(C)=O)C(C(F)(F)F)O[C@@H]1OP(=O)(OCCSC(C)=O)OCCSC(C)=O (stereo partly drawn) [P-D-Rha6F3-1P (10), Di-(S-acetyl-2-thioethyl)-(2,3,4-tri-O-acetyl-6,6,6-trifluoro-α-D-mannopyranoside) phosphate]",> 500,> 500,0.608,0.454,27.7,12.8,,,,,,,No significant effect,decreased binding,1,> 50,,,
"CC(=O)OC1C(OC(C)=O)[C@H](OC(C)=O)C(CF)O[C@@H]1OP(=O)(OCCSC(C)=O)OCCSC(C)=O (stereo partly drawn) [P-D-Rha6F-1P (8), Di-(S-acetyl-2-thioethyl)-(2,3,4-tri-O-acetyl-6-fluoro-α-D-rhamnopyranoside) phosphate]",> 500,> 500,267,84.4,174,345,,,,,,,,,,,,,
"CC(=O)OCC1O[C@H](OP(=O)(OCCSC(C)=O)OCCSC(C)=O)C(OC(C)=O)C(OC(C)=O)[C@@H]1OC(C)=O (stereo partly drawn) [P-D-Man-1P (6), Di-(S-acetyl-2-thioethyl)-(2,3,4,6-tetra-O-acetyl-α-D-mannopyranoside) phosphate]",> 500,> 500,> 500,> 500,> 500,> 500,,,,,,,,,,,no effect,,
"CC(=O)OC1O[C@@H](C)[C@@H](OC(C)=O)[C@@H](OC(C)=O)[C@@H]1F (some centres unmarked) [P-Fuc2Feq, reference compound]",,,,,,,> 500,> 500,44.9,30.7,115,121,,,,,,no inhibition,no longer discernible

# More lines, main results first:
"EC50 [1, 6] [µM]","EC50 [1, 7] [µM]","EC50 [2, 8] [µM]","EC50 [2, 9] [µM]","EC50 [3, 10] [µM]","EC50 [3, 11] [µM]","EC50 ([1]; AAL lectin, n=3, read-out: EC50 for fucose expression inhibition, EL4 AAL) [µM]","EC50 ([1]; AOL lectin, n=3, read-out: EC50 for fucose expression inhibition, EL4 AOL) [µM]","EC50 ([2]; AAL lectin, n=3, read-out: EC50 for fucose expression inhibition, THP-1 AAL) [µM]","EC50 ([2]; AOL lectin, n=3, read-out: EC50 for fucose expression inhibition, THP-1 AOL) [µM]","EC50 ([3]; AAL lectin, n=3, read-out: EC50 for fucose expression inhibition, Jurkat AAL) [µM]","EC50 ([3]; AOL lectin, n=3, read-out: EC50 for fucose expression inhibition, Jurkat AOL) [µM]",Structure (SMILES),"effect on binding of WGA, L-Pha, PNA, SNA and MAL-II lectins [4]",LCA and PSA lectin binding [4],"onset of fucosylation inhibition ([5]; 100 μM, AAL lectin) [days]","inhibition at 100 µM ([5]; 100 μM, AAL lectin) [%]",effect on lectin binding (FIG. 5) ([5]; 100 μM),"inhibition of fucosylation at 10 μM ([5]; 10 μM, AAL lectin)",effect on lectin binding (FIG. 5) ([5]; 10 μM)
> 500,> 500,> 500,137,> 500,153,,,,,,,"CC(=O)OC1C(OC(C)=O)[C@H](OC(C)=O)C(C)O[C@@H]1OP(=O)(OCCSC(C)=O)OCCSC(C)=O (stereo partly drawn) [P-D-Rha-1P (7), Di-(S-acetyl-2-thioethyl)-(2,3,4-tri-O-acetyl-α-D-rhamnopyranoside) phosphate]",,,,,,,
14.2,38.2,1.97,5.26,5.93,4.1,,,,,,,"CC(=O)OC1C(OC(C)=O)[C@H](OC(C)=O)C(C(F)F)O[C@@H]1OP(=O)(OCCSC(C)=O)OCCSC(C)=O (stereo partly drawn) [P-D-Rha6F2-1P (9), Di-(S-acetyl-2-thioethyl)-(2,3,4-tri-O-acetyl-6,6-difluoro-α-D-rhamnopyranoside) phosphate]",No significant effect,decreased binding,1,> 50,,,
